Source: patent US7560571B2, “Substituted pyrroles and imidazoles, compositions containing same, manufacturing process therefor and use thereof” (Aventis Pharma S.A., priority 2005, dated 2009)

Columns and labels:
human KDR enzyme = molecular target: T1, human KDR enzyme (Homo sapiens, UniProt P35968); experiment: KDR substrate phosphorylation inhibition, scintillation technique; assay type: biochemical; conditions: GST-KDR cytoplasmic domain, PLCγ substrate, 1 hour at 37° C.; read-out: KDR IC 50
T1 construct: The cytoplasmic domain of the human KDR enzyme was cloned in the form of a GST fusion; GST; made in house; host or cells: SF21 insect cells (baculovirus)
Method: The inhibitory effect of the compounds is determined in an in vitro test of phosphorylation of substrate with the enzyme KDR via a scintillation technique (96-well plate, NEN).
The cytoplasmic domain of the human KDR enzyme was cloned in the form of a GST fusion in the pFastBac baculovirus expression vector. The protein was expressed in the SF21 cells and purified to about 60% homogeneity.
The KDR kinase activity is measured in 20 mM MOPS, 10 mM MgCl2, 10 mM MnCl2, 1 mM DTT, 2.5 mM EGTA, 10 mM b-glycerophosphate, pH=7.2, in the presence of 10 mM MgCl2, 100 μm Na3VO4, 1 mM NaF. 10 μl of the compound are added to 70 μL of kinase buffer containing 100 ng of KDR enzyme at 4° C. The reaction is initiated by adding 20 μL of solution containing 2 μg of substrate (SH2-SH3 fragment of PLCγ expressed in the form of a GST fusion protein), 2 μCi of γ^33P[ATP] and 2 μm of cold ATP. After incubation for 1 hour at 37° C., the reaction is stopped by adding 1 volume (100 μl) of 200 mM EDTA. The incubation buffer is removed, and the wells are washed three times with 300 μL of PBS. The radioactivity in each well is measured using a Top Count NXT radioactivity counter (Packard).
The background is determined by measuring the radioactivity in four different wells containing radioactive ATP and the substrate alone.
A total activity control is measured in four different wells containing all the reagents (γ^33P-[ATP], KDR and substrate PLCγ), but in the absence of compound.
The inhibition of the KDR activity with the compound of the invention is expressed as a percentage of inhibition of the control activity determined in the absence of compound.
Compound SU5614 (Calbiochem) (1 μm) is included in each plate as an inhibition control.

human Tie2 = molecular target: T2, human Tie2 (Homo sapiens, UniProt Q02763); experiment: Tie2 phosphorylation of PLC inhibition, FlashPlate radioactivity; assay type: biochemical; conditions: GST-Tie2, GST-PLC substrate, one hour at 37° C.; read-out: TIE2 IC 50
T2 construct: amino acids of the intracellular domain 776-1124; made in house; host or cells: baculovirus expression system (pFastBacGT)
Method: The coding sequence of human Tie2 corresponding to the amino acids of the intracellular domain 776-1124 was generated by PCR using the cDNA isolated from a human placenta as a model. This sequence was introduced into a pFastBacGT baculovirus expression vector in the form of a GST fusion protein.
The inhibitory effect of the molecules is determined in a test of phosphorylation of PLC with Tie2 in the presence of GST-Tie2 purified to about 80% homogeneity. The substrate is composed of the SH2-SH3 fragments of PLC expressed in the form of a GST fusion protein.
The kinase activity of Tie2 is measured in a MOPS 20 mM pH 7.2 buffer, containing 10 mM MgCl2, 10 mM MnCl2, 1 mM DTT, 10 mM of glycerophosphate. In a 96-well FlashPlate plate maintained on ice, a reaction mixture is deposited, composed of 70 μL of kinase buffer containing 100 ng of enzyme GST-Tie2 per well. Next, 10 μL of the test molecule diluted in DMSO to a maximum concentration of 10% are added. For a given concentration, each measurement is performed four times. The reaction is initiated by adding 20 μL of solution containing 2 μg of GST-PLC, 2 μm of cold ATP and 1 μCi of ^33P[ATP]. After incubation for one hour at 37° C., the reaction is stopped by adding 1 volume (100 μl) of EDTA 200 mM. After removal of the incubation buffer, the wells are washed three times with 300 μL of PBS. The radioactivity is measured on a MicroBeta1450 Wallac.
The inhibition of the Tie2 activity is calculated and expressed as a percentage of inhibition relative to the control activity determined in the absence of compound.

human FAK = molecular target: T3, human FAK (Homo sapiens, UniProt Q05397); experiment: FAK autophosphorylation inhibition, time-resolved fluorescence test (HTRF); assay type: biochemical; conditions: autophosphorylation of the enzyme, 15 μM ATP, 1 hour at 37° C.; read-out: FAK IC 50
T3 construct: The whole cDNA of human FAK, the N-terminal end of which has been labelled with histidine; made in house; host or cells: baculovirus expression system (pFastBac HTc)
Method: The inhibitory activity of the compounds on FAK is determined by measuring the inhibition of autophosphorylation of the enzyme using a time-resolved fluorescence test (HTRF).
The whole cDNA of human FAK, the N-terminal end of which has been labelled with histidine, was cloned in a pFastBac HTc baculovirus expression vector. The protein was expressed and purified to about 70% homogeneity.
The kinase activity is determined by incubating the enzyme (6.6 μg/mL) with different concentrations of test compound in a 50 mM Hepes pH=7.2, 10 mM MgCl2, 100 μm Na3VO4, 15 μM ATP buffer for 1 hour at 37° C. The enzymatic reaction is stopped by adding Hepes pH=7.0 buffer containing 0.4 mM KF, 133 mM EDTA, 0.1% BSA and the labelling is performed, for 1 to 2 hours at room temperature, by adding to this buffer an anti-Histidine antibody labelled with XL665 and a tyrosine phosphospecific monoclonal antibody conjugated to europium cryptate (Eu-K). […] The long-lasting signal specific for XL-665 is measured in a Packard Discovery plate counter. All the tests are performed in duplicate and the average of the two tests is calculated. The inhibition of the autophosphorylation activity of FAK with compounds of the invention is expressed as a percentage of inhibition relative to a control whose activity is measured in the absence of test compound. […]

T2 sequence (Q02763 776-1124): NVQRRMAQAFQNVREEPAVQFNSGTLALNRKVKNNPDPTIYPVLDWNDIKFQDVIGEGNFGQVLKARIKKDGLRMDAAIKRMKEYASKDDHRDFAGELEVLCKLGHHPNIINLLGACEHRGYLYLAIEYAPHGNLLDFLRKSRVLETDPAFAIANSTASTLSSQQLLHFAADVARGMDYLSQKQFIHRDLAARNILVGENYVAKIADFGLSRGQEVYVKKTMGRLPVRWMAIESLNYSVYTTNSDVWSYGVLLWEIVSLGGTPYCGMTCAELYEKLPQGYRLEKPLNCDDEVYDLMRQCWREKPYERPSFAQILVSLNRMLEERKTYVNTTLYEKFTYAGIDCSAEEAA
T1 sequence (P35968 786-1356 limits assumed): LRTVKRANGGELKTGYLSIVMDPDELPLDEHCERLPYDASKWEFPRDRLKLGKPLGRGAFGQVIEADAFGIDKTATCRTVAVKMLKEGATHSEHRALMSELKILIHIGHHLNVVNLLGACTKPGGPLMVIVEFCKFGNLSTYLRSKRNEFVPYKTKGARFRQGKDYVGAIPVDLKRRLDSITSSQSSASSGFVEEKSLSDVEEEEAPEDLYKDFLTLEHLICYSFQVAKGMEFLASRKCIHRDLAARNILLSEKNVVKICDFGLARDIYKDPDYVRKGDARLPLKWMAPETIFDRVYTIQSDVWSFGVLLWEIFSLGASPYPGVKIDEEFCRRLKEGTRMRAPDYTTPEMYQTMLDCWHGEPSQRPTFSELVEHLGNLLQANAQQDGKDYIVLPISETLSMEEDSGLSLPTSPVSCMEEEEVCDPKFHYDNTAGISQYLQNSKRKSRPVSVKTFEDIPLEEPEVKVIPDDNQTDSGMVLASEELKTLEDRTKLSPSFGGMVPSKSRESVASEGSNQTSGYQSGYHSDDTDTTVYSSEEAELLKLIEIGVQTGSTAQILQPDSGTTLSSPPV
T3 sequence (Q05397 whole entry): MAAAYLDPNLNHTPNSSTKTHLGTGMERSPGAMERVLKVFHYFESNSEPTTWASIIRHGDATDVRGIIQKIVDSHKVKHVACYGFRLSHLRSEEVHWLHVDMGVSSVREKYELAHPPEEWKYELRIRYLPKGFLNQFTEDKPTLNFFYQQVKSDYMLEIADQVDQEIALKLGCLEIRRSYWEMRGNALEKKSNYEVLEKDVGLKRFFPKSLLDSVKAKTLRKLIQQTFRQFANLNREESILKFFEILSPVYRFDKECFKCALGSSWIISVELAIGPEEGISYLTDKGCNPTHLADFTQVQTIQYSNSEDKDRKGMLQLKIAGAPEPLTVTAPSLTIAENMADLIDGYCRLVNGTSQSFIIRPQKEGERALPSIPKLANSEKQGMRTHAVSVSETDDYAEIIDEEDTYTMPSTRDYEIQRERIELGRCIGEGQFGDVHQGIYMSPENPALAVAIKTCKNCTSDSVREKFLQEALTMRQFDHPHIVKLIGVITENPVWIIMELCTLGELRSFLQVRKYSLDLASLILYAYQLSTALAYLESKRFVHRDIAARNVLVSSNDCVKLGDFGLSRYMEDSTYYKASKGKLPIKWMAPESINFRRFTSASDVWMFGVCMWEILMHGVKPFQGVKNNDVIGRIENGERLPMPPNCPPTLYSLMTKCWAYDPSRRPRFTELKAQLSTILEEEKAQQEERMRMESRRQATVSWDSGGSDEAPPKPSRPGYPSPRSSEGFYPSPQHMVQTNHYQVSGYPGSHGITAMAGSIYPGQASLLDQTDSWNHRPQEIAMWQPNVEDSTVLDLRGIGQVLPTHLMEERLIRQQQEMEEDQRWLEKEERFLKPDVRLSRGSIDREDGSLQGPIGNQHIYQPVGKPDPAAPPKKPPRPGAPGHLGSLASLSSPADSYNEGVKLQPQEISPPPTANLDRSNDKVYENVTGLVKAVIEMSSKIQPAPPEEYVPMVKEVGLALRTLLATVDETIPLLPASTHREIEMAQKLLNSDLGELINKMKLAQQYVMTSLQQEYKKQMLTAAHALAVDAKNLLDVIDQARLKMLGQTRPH

Row | melting point | IC50 (human KDR enzyme) [µM] | IC50 (human Tie2) [µM] | IC50 (human FAK) [µM] | Compound
1 | 239.7 °C | – | – | – | NC(=O)c1[nH]cc(NC(=O)c2ccccc2)c1-c1ccc(NC(=O)Nc2cc(C(F)(F)F)ccc2F)cc1 [Example 7, 4-Benzoylamino-3-{4-[3-(2-fluoro-5-trifluoromethylphenyl)ureido]phenyl}-1H-pyrrole-2-carboxamide]
2 | ~ 174 °C | – | – | – | Cl.NC(=O)c1[nH]cc(N)c1-c1ccc(NC(=O)Nc2cc(C(F)(F)F)ccc2F)cc1
3 | 194 °C | – | – | – | NC(=O)c1[nH]cc(C(=O)O)c1-c1ccc(NC(=O)Nc2cc(C(F)(F)F)ccc2F)cc1 [Example 38, 5-Carbamoyl-4-{4-[3-(2-fluoro-5-trifluoromethylphenyl)ureido]phenyl}-1H-pyrrole-3-carboxylic acid]
4 | 228.5 °C | – | – | – | CC(=O)Nc1c[nH]c(C(N)=O)c1-c1ccc(NC(=O)Nc2cc(C(F)(F)F)ccc2F)cc1 [Example 5, 4-Acetylamino-3-{4-[3-(2-fluoro-5-trifluoromethylphenyl)ureido]phenyl}-1H-pyrrole-2-carboxamide]
5 | 178 °C | – | – | – | CN(C)CC(=O)Nc1c[nH]c(C(N)=O)c1-c1ccc(NC(=O)Nc2cc(C(F)(F)F)ccc2F)cc1 [Example 6, 4-(2-Dimethylaminoacetylamino)-3-{4-[3-(2-fluoro-5-trifluoromethylphenyl)-ureido]phenyl}-1H-pyrrole-2-carboxamide]
6 | 196 °C | – | – | – | NC(=O)c1c[nH]c(C(N)=O)c1-c1ccc(NC(=O)Nc2cc(C(F)(F)F)ccc2F)cc1 [Example 40, 3-{4-[3-(2-Fluoro-5-trifluoromethylphenyl)ureido]phenyl}-1H-pyrrole-2,4-dicarboxamide]
7 | – | 0.352 | 0.111 | – | NC(=O)c1[nH]cc(NC(=O)Nc2cc(C(F)(F)F)ccc2F)c1-c1ccc(NC(=O)Nc2cc(C(F)(F)F)ccc2F)cc1 [Example 4, 4-[3-(2-Fluoro-5-trifluoromethylphenyl)ureido]-3-{4-[3-(2-fluoro-5-trifluoro-methylphenyl)ureido]phenyl}-1H-pyrrole-2-carboxamide]
8 | 325 °C | – | – | – | NC(=O)c1[nH]cnc1-c1ccc(NC(=O)Nc2cc(C(F)(F)F)ccc2F)cc1 [Example 46, 5-{4-[3-(2-Fluoro-5-trifluoromethylphenyl)ureido]phenyl}-3H-imidazole-4-carboxamide]
9 | 179 °C | 0.023 | 0.004 | – | CCOC(=O)c1c[nH]c(C(N)=O)c1-c1ccc(NC(=O)Nc2cc(C(F)(F)F)ccc2F)cc1 [Example 9, Ethyl 5-carbamoyl-4-{4-[3-(2-fluoro-5-trifluoromethylphenyl)ureido]phenyl}-1H-pyrrole-3-carboxylate]
10 | – | 0.115 | 0.013 | 2.38 | NC(=O)c1[nH]ccc1-c1ccc(NC(=O)Nc2cc(C(F)(F)F)ccc2F)cc1 [Example 1, 3-{4-[3-(2-Fluoro-5-trifluoromethylphenyl)ureido]phenyl}-1H-pyrrole-2-carboxamide]
11 | – | 0.027 | 0.007 | – | NC(=O)c1[nH]cc(Cl)c1-c1ccc(NC(=O)Nc2cc(C(F)(F)F)ccc2F)cc1 [Example 44, 4-Chloro-3-{4-[3-(2-fluoro-5-trifluoromethylphenyl)ureido]phenyl}-1H-pyrrole-2-carboxamide]
